Experimental findings from paper PMC10066050, “Antimicrobial peptides CS-piscidin-induced cell death involves activation of RIPK1/PARP, and modification with myristic acid enhances its stability and tumor-targeting capability” (Discover. Oncology, 2023) are described below.

For one data set, the system named is A2780 cells. The class given is cell-based, human. The note with it: 24 h. On the procedure: (§1) A2780, SKOV3, ID8, IOSE80, and HUVEC cells (2.0 × 10^3 per well) were seeded into 96-well plates in 100 μL culture medium. After 24 h of incubation, the medium was replaced with a medium containing various peptide concentrations. The cell viability after the peptide treatment was tested by CCK8 assay. Briefly, after 24 h treatment, 10 μL CCK8 was added to each well and incubated for 2 h. After incubation, the optical density (OD) at 450 nm was detected using a microplate reader. Cell viability was calculated using the formula: (%) = [D-D0]/[ D¯ -D0] × 100%. D was the OD value of the experimental group, D0 represented the OD value of the blank control group, while [ D¯ was the mean OD value of the control group.

The test system of the next data set is SKOV3 cells. The format is cell-based, human. The settings on record: 24 h. On the procedure: as §1
In the next data set the test system is ID8 cells. The format is cell-based, mouse. The note with it: 24 h. On the procedure: as §1
Another data set concerns OVCA429 cells. The class given is cell-based, human. The settings on record: 24 h.
For data set [1], the system named is human umbilical vein endothelial cells HUVEC. Description: CCK8 cell viability assay. The class given is cell-based. The settings on record: 24 h. The method, then:
as §1
(Tetrazolium assays rely on reduction of a dye to a coloured formazan, in cell work by metabolically active cells.)

The subject of data set [2] is normal ovary epithelial cell IOSE80. Description: CCK8 cell viability assay. The class given is cell-based. The note with it: 24 h. The method, then: as §1
For a further data set, the system named is ID8-Luc cells. Description: Ovarian cancer peritoneal spread mouse model. The format is in vivo. The note with it: C57BL/6 mice, 5 mpk intraperitoneally every other day, 10 administrations; ascites volume after sacrifice. On the procedure:
To create luciferase heredity stable ID8 cells, the PL-luciferase plasmid (Addgene, 21,471) was packaged by co-transfecting it with DVPR and VSVG packing plasmids using PEI in HEK293T. The virus-containing solution was then collected and cell debris was removed through a 0.45 μm filter. After infection, the cells were selected by treating them with 1 μg/mL puromycin for 3 days to eliminate the uninfected ID8 cells. The expression of luciferase in the cells was then confirmed using the Bio-Lumi™ Firefly Luciferase Reporter Gene Assay Kit (RG042S, Beyotime, China).
The animal experiment followed the Declaration of Helsinki guidelines and was approved by the Guangdong Medical University Animal Ethical Committee (GDY2102330). 5-week-old female C57BL/6 mice were obtained from Yancheng biological company and housed in an SPF laboratory at 26 ℃ with free access to water and food. Mice were intraperitoneally injected with 5 × 10^6 ID8-Luc-puro cells resuspended in 200 μL PBS. […] Body weight was measured every 5 days. After treatment, mice were injected with pentobarbitone and D-luciferin, and the luminescence signals were observed within 15 min using the live imaging system (In-vivo Xtreme, Bruker, USA). The fluorescence intensity was normalized and analyzed by Bruker MI SE software.

Where no end group is shown, it is not given here.

Take FFKRLRNKFRLMRQAWKDYR [CS-piscidin]: the IC50 is 9.44 ± 0.666 µM in the data set with A2780 cells; 37.4 ± 5.09 µM in the data set on SKOV3 cells; 19.8 ± 0.836 µM in the data set with ID8 cells; 27.4 ± 1.16 µM with OVCA429 cells; 14.3 ± 3.03 µM in data set [1]; 35.2 ± 3.14 µM in data set [2]. The “ascites / cytotoxicity to normal cells in vivo” value with ID8-Luc cells was “still produced ascites”.

By IC50 is commonly meant the concentration that inhibits the measured activity by half. The low end stands for inhibition by little substance, the high end for a need for much substance.
